# Results taken from ChEMBL document CHEMBL1140508, “Novel C2-purine position analogs of nitrobenzylmercaptopurine riboside as human equilibrative nucleoside transporter 1 inhibitors” (Bioorg Med Chem, 2007).
# Biological target: T1, Equilibrative nucleoside transporter 1 (Homo sapiens, UniProt Q99808)
# T1 sequence (Q99808 whole entry): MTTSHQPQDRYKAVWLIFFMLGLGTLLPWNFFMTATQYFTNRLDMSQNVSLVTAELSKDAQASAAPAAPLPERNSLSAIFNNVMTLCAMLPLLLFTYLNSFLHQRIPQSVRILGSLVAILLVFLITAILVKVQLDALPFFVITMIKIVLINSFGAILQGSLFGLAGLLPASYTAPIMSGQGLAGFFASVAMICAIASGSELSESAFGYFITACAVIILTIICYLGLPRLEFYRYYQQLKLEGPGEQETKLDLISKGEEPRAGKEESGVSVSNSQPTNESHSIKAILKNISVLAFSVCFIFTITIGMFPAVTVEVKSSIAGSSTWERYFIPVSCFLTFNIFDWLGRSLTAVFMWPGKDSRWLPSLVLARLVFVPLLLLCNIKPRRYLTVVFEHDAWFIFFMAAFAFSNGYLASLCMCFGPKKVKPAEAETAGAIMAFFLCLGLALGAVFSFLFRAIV
# Test: Displacement of SAENTA-fluorescein from human ENT1 in K562 cells after 45 mins by flow cytometry
# Type: cell-based
row,Ki [nM],Structure (SMILES)
1,1.1,Nc1nc(SCc2ccc([N+](=O)[O-])cc2)c2ncn([C@@H]3O[C@H](CO)[C@@H](O)[C@H]3O)c2n1
2,2.1,O=[N+]([O-])c1ccc(CSc2nc(F)nc3c2ncn3[C@@H]2O[C@H](CO)[C@@H](O)[C@H]2O)cc1
3,429,CN(C)c1nc(SCc2ccc([N+](=O)[O-])cc2)c2ncn([C@@H]3O[C@H](CO)[C@@H](O)[C@H]3O)c2n1
4,11,O=[N+]([O-])c1ccc(CSc2nc(I)nc3c2ncn3[C@@H]2O[C@H](CO)[C@@H](O)[C@H]2O)cc1
5,24,CNc1nc(SCc2ccc([N+](=O)[O-])cc2)c2ncn([C@@H]3O[C@H](CO)[C@@H](O)[C@H]3O)c2n1
6,11,O=[N+]([O-])c1ccc(CSc2nc(Cl)nc3c2ncn3[C@@H]2O[C@H](CO)[C@@H](O)[C@H]2O)cc1
7,11,O=[N+]([O-])c1ccc(CSc2nc(Br)nc3c2ncn3[C@@H]2O[C@H](CO)[C@@H](O)[C@H]2O)cc1

# The remaining lines, values behind:
row,Structure (SMILES),Ki [nM]
1,CCCCCNc1nc(SCc2ccc([N+](=O)[O-])cc2)c2ncn([C@@H]3O[C@H](CO)[C@@H](O)[C@H]3O)c2n1,357
2,O=[N+]([O-])c1ccc(CSc2nc(NC3CCCC3)nc3c2ncn3[C@@H]2O[C@H](CO)[C@@H](O)[C@H]2O)cc1,125
3,O=[N+]([O-])c1ccc(CSc2nc(NC3CCCCC3)nc3c2ncn3[C@@H]2O[C@H](CO)[C@@H](O)[C@H]2O)cc1,400
4,CCCNc1nc(SCc2ccc([N+](=O)[O-])cc2)c2ncn([C@@H]3O[C@H](CO)[C@@H](O)[C@H]3O)c2n1,193
5,O=[N+]([O-])c1ccc(CSc2nc(N(CCO)CCO)nc3c2ncn3[C@@H]2O[C@H](CO)[C@@H](O)[C@H]2O)cc1,243
6,CCNc1nc(SCc2ccc([N+](=O)[O-])cc2)c2ncn([C@@H]3O[C@H](CO)[C@@H](O)[C@H]3O)c2n1,24
7,O=[N+]([O-])c1ccc(CSc2nc(NCCO)nc3c2ncn3[C@@H]2O[C@H](CO)[C@@H](O)[C@H]2O)cc1,86
8,CC(=O)Nc1nc(SCc2ccc([N+](=O)[O-])cc2)c2ncn([C@@H]3O[C@H](CO)[C@@H](O)[C@H]3O)c2n1,34
9,O=[N+]([O-])c1ccc(CSc2nc(NC3CCC3)nc3c2ncn3[C@@H]2O[C@H](CO)[C@@H](O)[C@H]2O)cc1,33
10,O=[N+]([O-])c1ccc(CSc2nc(NCc3ccccc3)nc3c2ncn3[C@@H]2O[C@H](CO)[C@@H](O)[C@H]2O)cc1,247
11,O=C(Nc1nc(SCc2ccc([N+](=O)[O-])cc2)c2ncn([C@@H]3O[C@H](CO)[C@@H](O)[C@H]3O)c2n1)c1ccccc1,315
12,CCCCNc1nc(SCc2ccc([N+](=O)[O-])cc2)c2ncn([C@@H]3O[C@H](CO)[C@@H](O)[C@H]3O)c2n1,325
13,O=[N+]([O-])c1ccc(CSc2nc(NCCc3ccccc3)nc3c2ncn3[C@@H]2O[C@H](CO)[C@@H](O)[C@H]2O)cc1,394
14,O=[N+]([O-])c1ccc(CSc2nc(NC3CC3)nc3c2ncn3[C@@H]2O[C@H](CO)[C@@H](O)[C@H]2O)cc1,25
